Our source for the EC50 values is doi:10.1101/2023.10.20.563248v1 (biorxiv, 2023).

The target of assay [1] is MST4 (full-length, NanoLuc fusion) (Homo sapiens, UniProt Q9P289). As to the kind of experiment: NanoBRET tracer displacement, HEK293T. The format is cell-based. To be noted: intact cells; […] °C, […] h; competitive with tracer.
Assay [2] concerns the target MST3 (full-length, NanoLuc fusion) (Homo sapiens, UniProt Q9Y6E0). Put plainly: cell-based.
Assay [3] concerns the target MST2 (full-length, NanoLuc fusion) (Homo sapiens, UniProt Q13188). Put plainly: NanoBRET tracer displacement, HEK293T. To be noted: intact cells; […] °C, […] h; competitive with tracer. The assay is classed as cell-based. (BRET reads energy transfer from a luciferase to a nearby fluorophore.)
Assay [4] addresses MST1 (full-length, NanoLuc fusion) (Homo sapiens, UniProt Q13043). As to the kind of experiment: NanoBRET tracer displacement, HEK293T. To be noted: intact cells; […] °C, […] h; competitive with tracer. The assay is classed as cell-based.

Broadly, the EC50 is the midpoint of the concentration-response curve. A high value points to weaker potency.

Sequence of MST2 (full-length, NanoLuc fusion) (Q13188 whole entry, the tested form may be a part): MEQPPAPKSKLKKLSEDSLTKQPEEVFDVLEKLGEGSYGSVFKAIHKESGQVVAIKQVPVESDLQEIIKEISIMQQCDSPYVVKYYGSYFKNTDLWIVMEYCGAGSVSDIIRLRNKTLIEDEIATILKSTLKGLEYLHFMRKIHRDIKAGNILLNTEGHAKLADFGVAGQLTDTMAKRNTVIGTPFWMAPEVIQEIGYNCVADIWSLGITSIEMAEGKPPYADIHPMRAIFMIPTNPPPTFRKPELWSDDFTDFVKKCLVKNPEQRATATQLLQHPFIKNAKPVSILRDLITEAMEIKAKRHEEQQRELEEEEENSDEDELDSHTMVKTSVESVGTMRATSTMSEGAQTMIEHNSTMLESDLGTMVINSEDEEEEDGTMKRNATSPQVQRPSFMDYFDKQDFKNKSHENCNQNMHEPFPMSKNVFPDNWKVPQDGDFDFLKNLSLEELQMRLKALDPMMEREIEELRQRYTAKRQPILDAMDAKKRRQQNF
Sequence of MST1 (full-length, NanoLuc fusion) (Q13043 whole entry, the tested form may be a part): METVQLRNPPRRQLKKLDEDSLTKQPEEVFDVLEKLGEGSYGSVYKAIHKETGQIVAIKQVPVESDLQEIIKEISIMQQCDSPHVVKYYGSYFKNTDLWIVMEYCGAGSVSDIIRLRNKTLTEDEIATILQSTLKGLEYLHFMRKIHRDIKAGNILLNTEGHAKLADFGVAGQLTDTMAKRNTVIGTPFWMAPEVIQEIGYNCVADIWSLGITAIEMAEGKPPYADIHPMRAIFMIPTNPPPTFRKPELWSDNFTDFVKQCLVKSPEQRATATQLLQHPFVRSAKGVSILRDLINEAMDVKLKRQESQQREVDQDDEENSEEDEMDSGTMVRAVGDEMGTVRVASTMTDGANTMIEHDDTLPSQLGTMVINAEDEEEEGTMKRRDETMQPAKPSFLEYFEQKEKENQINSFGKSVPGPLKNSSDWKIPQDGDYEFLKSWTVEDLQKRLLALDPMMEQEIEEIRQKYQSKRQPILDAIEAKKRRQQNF
Sequence of MST4 (full-length, NanoLuc fusion) (Q9P289 whole entry, the tested form may be a part): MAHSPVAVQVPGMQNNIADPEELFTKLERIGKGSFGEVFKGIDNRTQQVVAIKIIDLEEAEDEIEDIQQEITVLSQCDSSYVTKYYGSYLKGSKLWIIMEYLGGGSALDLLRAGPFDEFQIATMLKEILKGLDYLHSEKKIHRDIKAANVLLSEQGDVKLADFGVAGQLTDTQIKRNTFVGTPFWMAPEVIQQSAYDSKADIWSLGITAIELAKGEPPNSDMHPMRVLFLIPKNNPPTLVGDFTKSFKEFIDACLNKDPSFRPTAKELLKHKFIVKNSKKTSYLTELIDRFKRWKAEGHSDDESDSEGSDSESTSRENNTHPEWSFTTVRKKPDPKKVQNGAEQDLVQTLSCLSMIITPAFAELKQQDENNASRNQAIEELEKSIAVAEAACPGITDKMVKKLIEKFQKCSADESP
Sequence of MST3 (full-length, NanoLuc fusion) (Q9Y6E0 whole entry, the tested form may be a part): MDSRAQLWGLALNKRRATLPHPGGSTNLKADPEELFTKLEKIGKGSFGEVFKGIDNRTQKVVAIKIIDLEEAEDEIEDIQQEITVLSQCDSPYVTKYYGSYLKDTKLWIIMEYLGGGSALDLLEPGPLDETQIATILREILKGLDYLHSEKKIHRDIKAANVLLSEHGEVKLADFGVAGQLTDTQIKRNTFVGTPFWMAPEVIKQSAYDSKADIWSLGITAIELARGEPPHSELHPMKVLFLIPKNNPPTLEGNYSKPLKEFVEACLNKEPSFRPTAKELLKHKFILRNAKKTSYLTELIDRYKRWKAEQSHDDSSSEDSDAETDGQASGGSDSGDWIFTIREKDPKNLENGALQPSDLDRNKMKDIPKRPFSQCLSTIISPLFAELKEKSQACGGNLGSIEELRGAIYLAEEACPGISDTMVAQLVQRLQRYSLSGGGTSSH

Take `O=C1NCCCCCCNc2nc(c3ccccc3n2)Nc2cc1[nH]n2` [21e, (Z)-3^1H-2,5,12-triaza-1(4,2)-quinazolina-3(3,5)-pyrazolacyclododecaphan-4-one]: the EC50 is 2400 nM in assay [1] and 1800 nM in assay [2].
As for `N#CCc1ccc(Nc2nccc(Nc3cc(C4CC4)[nH]n3)n2)cc1` [compound 1, 1], the EC50 in assay [3] stood at 110 nM; in assay [4], 200 nM.
